Values joined by “and” are separate entries in the source; they are usually repeats but may differ in a detail not shown here. Equal values may be shown once.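 Dose response: 5 concentrations. Exposure: 48 h. Format: 96-well plates. Endpoint: linear interpolation; highest concentration if not reached. The concentration for 50% growth inhibition is given as GI50. Definition used: TGI = concentration required for complete inhibition of growth.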
Experiments:
Assay in all cases: NCI tumour cell line growth inhibition, 48 h
SNB-75 CNS = tested on: SNB-75 CNS
SN12C renal = tested on: SN12C renal
HCC-2998 colon = tested on: HCC-2998 colon
SF-268 CNS = tested on: SF-268 CNS
SK-MEL-2 melanoma = tested on: SK-MEL-2 melanoma
T-47D breast = tested on: T-47D breast
MCF7 breast = tested on: MCF7 breast
IGROV1 ovarian = tested on: IGROV1 ovarian
BT-549 breast = tested on: BT-549 breast
HCT-15 colon = tested on: HCT-15 colon

## COc1cc(OC)cc(C2C3=C(COC3=O)Nc3cc(OC)ccc32)c1 (configuration not stated)
SNB-75 CNS
  GI50: < 0.01 µM
  TGI: 24.1 µM
SN12C renal
  GI50: 0.0146 µM
  TGI: > 77.6 µM
HCC-2998 colon
  GI50: < 0.01 µM
SF-268 CNS
  GI50: < 0.0106 µM
  TGI: > 61.8 µM
SK-MEL-2 melanoma
  GI50: 0.335 µM
  TGI: > 100 µM
T-47D breast
  GI50: < 0.01 µM
  TGI: > 100 µM
MCF7 breast
  GI50: < 0.01 µM
  TGI: 19.9 µM
IGROV1 ovarian
  GI50: < 0.01 µM
  TGI: > 94.5 µM
BT-549 breast
  GI50: 0.0138 µM
  TGI: > 100 µM
HCT-15 colon
  GI50: < 0.01 µM
  TGI: > 42.6 µM

## Cc1cc(C)c(C#N)c(Sc2nc(C)c([N+](=O)[O-])c(C)c2C#N)n1
SNB-75 CNS
  GI50: 3.29 µM
  TGI: 21.8 µM
SN12C renal
  GI50: 2.26 µM
  TGI: 5.67 µM
HCC-2998 colon
  GI50: 4.66 µM
  TGI: 15.8 µM
SF-268 CNS
  GI50: 3.26 µM
  TGI: 11.8 µM
SK-MEL-2 melanoma
  GI50: 2.21 µM
  TGI: 5.86 µM
T-47D breast
  GI50: 2.29 µM
  TGI: 5.59 µM
MCF7 breast
  GI50: 3.11 µM
  TGI: 11.6 µM
IGROV1 ovarian
  GI50: 3.3 µM
  TGI: 12.3 µM
BT-549 breast
  GI50: 2.66 µM
  TGI: 7.5 µM
HCT-15 colon
  GI50: 2.32 µM
  TGI: 6.25 µM

## CSc1nc2nc3c(nc2c(=O)n1C)C(=O)c1ccccc1C3=O
SNB-75 CNS
  GI50: 0.128 µM
  TGI: 0.266 µM
SN12C renal
  GI50: 0.157 µM
  TGI: 0.307 µM
HCC-2998 colon
  GI50: 0.275 µM
  TGI: 0.855 µM
SF-268 CNS
  GI50: 0.294 µM
  TGI: 1.09 µM
SK-MEL-2 melanoma
  GI50: 0.207 µM
  TGI: 0.471 µM
T-47D breast
  GI50: 0.226 µM
  TGI: 0.843 µM
MCF7 breast
  GI50: 0.162 µM
  TGI: 0.384 µM
IGROV1 ovarian
  GI50: 0.271 µM
  TGI: 0.778 µM
BT-549 breast
  GI50: 0.159 µM
  TGI: 0.305 µM
HCT-15 colon
  GI50: 0.164 µM
  TGI: 0.429 µM

## CC(=O)N1CCN(CCNC(=O)n2cc(-c3ccncc3)c(-c3cc(O)cc(Cl)c3)n2)CC1
SNB-75 CNS
  GI50: 13.5 µM
  TGI: 41.4 µM
SN12C renal
  GI50: 13.7 µM
  TGI: 46.2 µM
HCC-2998 colon
  GI50: 17.2 µM
  TGI: 32.2 µM
SF-268 CNS
  GI50: 14.6 µM
  TGI: 35.2 µM
SK-MEL-2 melanoma
  GI50: 10.8 µM
  TGI: 27 µM
T-47D breast
  GI50: 16.6 µM
  TGI: 49.2 µM
MCF7 breast
  GI50: 14.7 µM
  TGI: 32.9 µM
IGROV1 ovarian
  GI50: 18.5 µM
  TGI: 55.1 µM
BT-549 breast
  GI50: 13 µM
  TGI: 27.1 µM
HCT-15 colon
  GI50: 4.25 µM
  TGI: 22.2 µM

## CC(C)OC(=S)Nc1ccc(Cl)c(/C=N/OC(C)(C)C)c1
SNB-75 CNS
  TGI: 54.7 µM
SN12C renal
  TGI: 31.6 µM
HCC-2998 colon
  TGI: 41.4 µM
SF-268 CNS
  TGI: 40.4 µM
SK-MEL-2 melanoma
  TGI: 37.5 µM
T-47D breast
  TGI: 38.7 µM
MCF7 breast
  TGI: 51 µM
IGROV1 ovarian
  TGI: 36.6 µM
BT-549 breast
  TGI: 34.1 µM
HCT-15 colon
  TGI: 32.4 µM

## COC(=O)c1c(-c2cccs2)oc(-c2cccs2)c1C(=O)OC
SNB-75 CNS
  GI50: > 73.6 µM
  TGI: > 100 µM
SN12C renal
  GI50: 61.6 µM
  TGI: > 100 µM
HCC-2998 colon
  GI50: 36.2 µM
  TGI: > 82.8 µM
SF-268 CNS
  GI50: 42 µM
  TGI: > 100 µM
SK-MEL-2 melanoma
  GI50: 39.5 µM
  TGI: > 100 µM
T-47D breast
  GI50: 28.5 µM
  TGI: > 100 µM
MCF7 breast
  GI50: 13.2 µM
  TGI: > 100 µM
IGROV1 ovarian
  GI50: 36.2 µM
  TGI: > 100 µM
BT-549 breast
  GI50: 52 µM
  TGI: > 100 µM
HCT-15 colon
  GI50: 27.5 µM
  TGI: > 100 µM

## COc1cccc2cc(N(C)c3nc(C)nc4c3CCC4)ccc12
SNB-75 CNS
  TGI: 24.2 µM
SN12C renal
  GI50: < 0.01 µM
  TGI: 22.4 µM
HCC-2998 colon
  GI50: < 0.01 µM
  TGI: 14 µM
SF-268 CNS
  GI50: < 0.01 µM
  TGI: 15.6 µM
SK-MEL-2 melanoma
  GI50: < 0.01 µM
  TGI: 14.2 µM
T-47D breast
  GI50: 5.38 µM
  TGI: 41.8 µM
MCF7 breast
  GI50: < 0.01 µM
  TGI: 14.6 µM
IGROV1 ovarian
  GI50: < 0.01 µM
  TGI: 23.9 µM
BT-549 breast
  GI50: < 0.01 µM
  TGI: 11 µM
HCT-15 colon
  GI50: < 0.01 µM
  TGI: 6.41 µM

## COc1cc(C2C3=C(COC3=O)N(CCO)c3cc4c(cc32)OCCO4)cc(OC)c1OC (configuration not stated)
SNB-75 CNS
  GI50: 0.183 µM
  TGI: > 50 µM
SN12C renal
  TGI: > 50 µM
HCC-2998 colon
  GI50: 0.127 µM
  TGI: 0.335 µM
SF-268 CNS
  GI50: 0.374 µM
  TGI: > 50 µM
SK-MEL-2 melanoma
  GI50: 0.173 µM
  TGI: 4.55 µM
T-47D breast
  GI50: 0.287 µM
  TGI: > 50 µM
MCF7 breast
  GI50: 0.192 µM
  TGI: > 50 µM
IGROV1 ovarian
  GI50: 0.165 µM
  TGI: 0.898 µM
BT-549 breast
  GI50: 0.32 µM
  TGI: > 11.8 µM
HCT-15 colon
  GI50: 1.37 µM
  TGI: > 50 µM

## COc1ccc(-c2nc(-c3nc4ccc(C)cc4[nH]3)cc3c2[nH]c2ccccc23)cc1
SNB-75 CNS
  GI50: 3.43 µM
  TGI: > 100 µM
SN12C renal
  GI50: 3.96 µM
  TGI: > 100 µM
HCC-2998 colon
  GI50: 7.61 µM
  TGI: > 100 µM
SF-268 CNS
  GI50: 6.8 µM
  TGI: > 100 µM
SK-MEL-2 melanoma
  GI50: 3.11 µM
  TGI: 9.22 µM
T-47D breast
  GI50: 3.67 µM
  TGI: 19.2 µM
MCF7 breast
  GI50: 3.06 µM
  TGI: 56.3 µM
IGROV1 ovarian
  GI50: 3.58 µM
  TGI: > 100 µM
BT-549 breast
  GI50: 6.88 µM
  TGI: > 100 µM
HCT-15 colon
  GI50: 3.2 µM
  TGI: > 100 µM

## CN(C)CCCn1c(=O)c2ccccc2c2cnc3[nH]ccc3c21
SNB-75 CNS
  GI50: 1.17 µM
  TGI: 3.6 µM
SN12C renal
  GI50: 2.17 µM
  TGI: 14.6 µM
HCC-2998 colon
  GI50: 2.03 µM
  TGI: 7.72 µM
SF-268 CNS
  GI50: 1.44 µM
  TGI: 5.02 µM
SK-MEL-2 melanoma
  GI50: 1.79 µM
  TGI: 5.38 µM
T-47D breast
  GI50: 2.5 µM
  TGI: 7.42 µM
MCF7 breast
  GI50: 2.74 µM
  TGI: 11.3 µM
IGROV1 ovarian
  GI50: 2.28 µM
  TGI: 11.7 µM
BT-549 breast
  GI50: 2.95 µM
  TGI: 9.58 µM
HCT-15 colon
  GI50: 2 µM
  TGI: 9.58 µM

## COc1ccc(-c2cc3c(C)nc(N)nc3n(C3CCC(OCCO)CC3)c2=O)cn1 (configuration not stated)
SNB-75 CNS
  GI50: 0.0151 µM and < 0.0117 µM
  TGI: 0.137 µM and 0.177 µM
SN12C renal
  GI50: 0.079 µM and 0.0758 µM
  TGI: > 100 µM
HCC-2998 colon
  GI50: 0.0941 µM and 0.13 µM
  TGI: 1.8 µM and 1.71 µM
SF-268 CNS
  GI50: 0.0784 µM and 0.0779 µM
  TGI: > 4.35 µM and 5.49 µM
SK-MEL-2 melanoma
  GI50: 0.124 µM and 0.0674 µM
  TGI: 0.549 µM and 0.392 µM
T-47D breast
  GI50: 0.0131 µM and 0.0211 µM
  TGI: 0.0735 µM and 0.147 µM
MCF7 breast
  GI50: 0.0266 µM and 0.0228 µM
  TGI: > 10 µM and 1.03 µM
IGROV1 ovarian
  GI50: 0.021 µM and 0.0199 µM
  TGI: 0.0983 µM and 0.092 µM
BT-549 breast
  GI50: 0.0622 µM and 0.0317 µM
  TGI: 0.666 µM and 0.359 µM
HCT-15 colon
  GI50: 0.106 µM and 0.0974 µM
  TGI: > 6.21 µM and 5.11 µM

## Cc1ccc([N+](=O)[O-])c2c(NCCNC(=O)c3cc(C(=O)NCCNc4ccnc5c(C)ccc([N+](=O)[O-])c45)n(C)n3)ccnc12
SNB-75 CNS
  TGI: > 87.3 µM
SN12C renal
  TGI: > 70.9 µM
HCC-2998 colon
  TGI: > 100 µM
SF-268 CNS
  TGI: > 100 µM
SK-MEL-2 melanoma
  TGI: > 100 µM
T-47D breast
  TGI: > 100 µM
MCF7 breast
  TGI: > 21.5 µM
IGROV1 ovarian
  TGI: > 100 µM
BT-549 breast
  TGI: > 100 µM
HCT-15 colon
  TGI: > 100 µM

## CC/C(Cc1ccccc1)=C(\c1ccc(OCCN2CCCC2)cc1)c1ccc(OC(=O)NCc2ccccc2)cc1
SNB-75 CNS
  GI50: 2.13 µM
  TGI: 6.53 µM
SN12C renal
  GI50: 1.81 µM
  TGI: 3.33 µM
HCC-2998 colon
  GI50: 1.51 µM
  TGI: 2.94 µM
SF-268 CNS
  GI50: 1.81 µM
  TGI: 3.77 µM
SK-MEL-2 melanoma
  GI50: 2.09 µM
  TGI: 3.99 µM
T-47D breast
  GI50: 1.41 µM
  TGI: 4.23 µM
MCF7 breast
  GI50: 0.0994 µM
  TGI: 2.16 µM
IGROV1 ovarian
  GI50: 1.93 µM
  TGI: 3.87 µM
BT-549 breast
  GI50: 1.79 µM
  TGI: 3.47 µM
HCT-15 colon
  GI50: 1.58 µM
  TGI: 3.07 µM
